Laboratory results reported in the NIST ThermoML archive (doi:10.1016/j.jct.2012.06.012).
Numbers after ± are expanded uncertainties.

Assay: xn = mol fraction of the nth substance listed
Conditions: Liquid, Vibrating tube method

CCCCCCCCCC [decane] + CCO
Conditions	mass density [kg/m3]
342.86 K, 16000 kPa, x2 = 0.7526	727.54 ± 0.4
342.86 K, 16000 kPa, x2 = 0.9014	742.82 ± 0.38
342.86 K, 17000 kPa, x2 = 0.7526	728.5 ± 0.42
342.86 K, 17000 kPa, x2 = 0.9014	743.79 ± 0.4
342.86 K, 18000 kPa, x2 = 0.7526	729.43 ± 0.43
342.86 K, 18000 kPa, x2 = 0.9014	744.74 ± 0.41
342.86 K, 19000 kPa, x2 = 0.7526	730.35 ± 0.44
342.86 K, 19000 kPa, x2 = 0.9014	745.67 ± 0.42
342.86 K, 20000 kPa, x2 = 0.7526	731.26 ± 0.45
342.86 K, 20000 kPa, x2 = 0.9014	746.59 ± 0.43
342.93 K, 1000 kPa, x2 = 0.2507	693.16 ± 0.22
342.93 K, 2000 kPa, x2 = 0.2507	694.23 ± 0.24
342.93 K, 3000 kPa, x2 = 0.2507	695.28 ± 0.25
342.93 K, 4000 kPa, x2 = 0.2507	696.32 ± 0.27
342.93 K, 5000 kPa, x2 = 0.2507	697.34 ± 0.28
342.93 K, 6000 kPa, x2 = 0.2507	698.35 ± 0.3
342.93 K, 7000 kPa, x2 = 0.2507	699.37 ± 0.31
342.93 K, 8000 kPa, x2 = 0.2507	700.38 ± 0.32
342.93 K, 9000 kPa, x2 = 0.2507	701.37 ± 0.34
342.93 K, 10000 kPa, x2 = 0.2507	702.36 ± 0.35
342.93 K, 11000 kPa, x2 = 0.2507	703.34 ± 0.36
342.93 K, 12000 kPa, x2 = 0.2507	704.32 ± 0.38
342.93 K, 13000 kPa, x2 = 0.2507	705.28 ± 0.39
342.93 K, 14000 kPa, x2 = 0.2507	706.23 ± 0.41
342.93 K, 15000 kPa, x2 = 0.2507	707.16 ± 0.42
342.93 K, 16000 kPa, x2 = 0.2507	708.07 ± 0.43
342.93 K, 17000 kPa, x2 = 0.2507	708.97 ± 0.45
342.93 K, 18000 kPa, x2 = 0.2507	709.85 ± 0.46
342.93 K, 19000 kPa, x2 = 0.2507	710.72 ± 0.47
342.93 K, 20000 kPa, x2 = 0.2507	711.57 ± 0.48
352.68 K, 1000 kPa, x2 = 0.9014	717.22 ± 0.21
352.68 K, 2000 kPa, x2 = 0.9014	718.43 ± 0.22
352.68 K, 3000 kPa, x2 = 0.9014	719.64 ± 0.24
352.68 K, 4000 kPa, x2 = 0.9014	720.84 ± 0.25
352.68 K, 5000 kPa, x2 = 0.9014	722.04 ± 0.26
352.68 K, 6000 kPa, x2 = 0.9014	723.23 ± 0.27
352.68 K, 7000 kPa, x2 = 0.9014	724.41 ± 0.29
352.68 K, 8000 kPa, x2 = 0.9014	725.57 ± 0.3
352.68 K, 9000 kPa, x2 = 0.9014	726.72 ± 0.31
352.68 K, 10000 kPa, x2 = 0.9014	727.86 ± 0.32
352.68 K, 11000 kPa, x2 = 0.9014	728.99 ± 0.34
352.68 K, 12000 kPa, x2 = 0.9014	730.09 ± 0.35
352.68 K, 13000 kPa, x2 = 0.9014	731.17 ± 0.36
352.68 K, 14000 kPa, x2 = 0.9014	732.26 ± 0.37
352.68 K, 15000 kPa, x2 = 0.9014	733.32 ± 0.38
352.68 K, 16000 kPa, x2 = 0.9014	734.36 ± 0.4
352.68 K, 17000 kPa, x2 = 0.9014	735.39 ± 0.41
352.68 K, 18000 kPa, x2 = 0.9014	736.4 ± 0.42
352.68 K, 19000 kPa, x2 = 0.9014	737.39 ± 0.43
352.68 K, 20000 kPa, x2 = 0.9014	738.36 ± 0.44
352.69 K, 1000 kPa, x2 = 0.0937	683.22 ± 0.23
352.69 K, 1000 kPa, x2 = 0.4963	689.92 ± 0.23
352.69 K, 2000 kPa, x2 = 0.0937	684.34 ± 0.25
352.69 K, 2000 kPa, x2 = 0.4963	691.07 ± 0.24
352.69 K, 3000 kPa, x2 = 0.0937	685.44 ± 0.26
352.69 K, 3000 kPa, x2 = 0.4963	692.22 ± 0.25
352.69 K, 4000 kPa, x2 = 0.0937	686.53 ± 0.27
352.69 K, 4000 kPa, x2 = 0.4963	693.37 ± 0.27
352.69 K, 5000 kPa, x2 = 0.0937	687.61 ± 0.29
352.69 K, 5000 kPa, x2 = 0.4963	694.5 ± 0.28
352.69 K, 6000 kPa, x2 = 0.0937	688.68 ± 0.3
352.69 K, 6000 kPa, x2 = 0.4963	695.63 ± 0.3
352.69 K, 7000 kPa, x2 = 0.0937	689.74 ± 0.32
352.69 K, 7000 kPa, x2 = 0.4963	696.75 ± 0.31
352.69 K, 8000 kPa, x2 = 0.0937	690.8 ± 0.33
352.69 K, 8000 kPa, x2 = 0.4963	697.86 ± 0.32
352.69 K, 9000 kPa, x2 = 0.0937	691.83 ± 0.35
352.69 K, 9000 kPa, x2 = 0.4963	698.96 ± 0.34
352.69 K, 10000 kPa, x2 = 0.0937	692.86 ± 0.36
352.69 K, 10000 kPa, x2 = 0.4963	700.06 ± 0.35
352.69 K, 11000 kPa, x2 = 0.0937	693.89 ± 0.37
352.69 K, 11000 kPa, x2 = 0.4963	701.13 ± 0.37
352.69 K, 12000 kPa, x2 = 0.0937	694.89 ± 0.39
352.69 K, 12000 kPa, x2 = 0.4963	702.2 ± 0.38
352.69 K, 13000 kPa, x2 = 0.0937	695.89 ± 0.4
352.69 K, 13000 kPa, x2 = 0.4963	703.25 ± 0.39
352.69 K, 14000 kPa, x2 = 0.0937	696.87 ± 0.42
352.69 K, 14000 kPa, x2 = 0.4963	704.28 ± 0.41
352.69 K, 15000 kPa, x2 = 0.0937	697.83 ± 0.43
352.69 K, 15000 kPa, x2 = 0.4963	705.29 ± 0.42
352.69 K, 16000 kPa, x2 = 0.0937	698.77 ± 0.44
352.69 K, 16000 kPa, x2 = 0.4963	706.29 ± 0.43
352.69 K, 17000 kPa, x2 = 0.0937	699.71 ± 0.46
352.69 K, 17000 kPa, x2 = 0.4963	707.26 ± 0.45
352.69 K, 18000 kPa, x2 = 0.0937	700.63 ± 0.47
352.69 K, 18000 kPa, x2 = 0.4963	708.23 ± 0.46
352.69 K, 19000 kPa, x2 = 0.0937	701.52 ± 0.49
352.69 K, 19000 kPa, x2 = 0.4963	709.17 ± 0.47
352.69 K, 20000 kPa, x2 = 0.0937	702.39 ± 0.5
352.69 K, 20000 kPa, x2 = 0.4963	710.11 ± 0.49
